Peptide text beside a SMILES is read from it.

Series [1] in a line: Peptide stability in human serum. The settings on record: human serum (50% v/v) from a healthy donor.
Series [2] addresses His-tagged Spike RBD protein (SARS-CoV-2) (UniProt P0DTC2). The series is described as follows: BLI. For orientation: Biolayer interferometry detects binding as a change in optical thickness at a sensor tip.

As to `CC(C)C[C@H](NC(=O)[C@@H](N)[C@@H](C)O)C(=O)N[C@@H](Cc1c[nH]cn1)C(N)=O` [TLH] (H-Thr-Leu-His-NH2), in series [1], the half-life at 1 mM was 4.36 h. For the compound `CC[C@H](C)[C@H](NC(=O)[C@H](Cc1ccccc1)NC(=O)[C@@H](N)C(C)C)C(N)=O` [VFI] (H-Val-Phe-Ile-NH2), the half-life at 1 mM in series [1] is 12.4 h. As for tripeptide VFI, the Kd in series [2] came to 28.4 µM. tripeptide TLH: the Kd in series [2] is 22.8 µM.

A word on the half-life: it is the time needed for the level to fall by half in the phase considered. High values mean slow loss, low ones fast loss. What is called Kd is the free concentration of one partner at which half of the binding sites on the other are occupied at equilibrium, for simple one-to-one binding.

(Values after PMC9612326 (Viruses, 2022).)
